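Tested at 5 concentrations; 48 h exposure; 96-well plates; endpoints linearly interpolated, else capped at highest concentration. GI50 = concentration required for 50% inhibition of growth.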 Calls of active or inactive are those of the source. No stated cut-off is given here; in the data, active = GI50 up to about 1.1 µM and inactive = higher.
Experiments:
Assay in all cases: inhibition of tumour cell growth, NCI panel, 48 h
[1] = system: KM12
[2] = system: DMS-114
[3] = system: KM-20L2
[4] = system: HCT-116
[5] = system: SK-OV-3
[6] = system: 786-0
[7] = system: HOP-62
[8] = system: SF-295
[9] = system: IGROV-1
[10] = system: CCRF-CEM
[11] = system: M19-MEL
[12] = system: HOP-18
[13] = system: MOLT-4
[14] = system: NCI-H522
[15] = system: OVCAR-4
[16] = system: UACC-62
[17] = system: OVCAR-3
[18] = system: SF-268
[19] = system: SW-620
[20] = system: NCI-H226
[21] = system: SNB-19
[22] = system: SK-MEL-2
[23] = system: LXFL 529
[24] = system: NCI-H23
[25] = system: NCI-H460
[26] = system: SR
[27] = system: SN12C
[28] = system: OVCAR-8
[29] = system: U-251
[30] = system: DMS-273
[31] = system: Malme-3M
[32] = system: SK-MEL-5
[33] = system: HT-29
[34] = system: HOP-92
[35] = system: HCC 2998
[36] = system: COLO 205
[37] = system: DLD-1
[38] = system: SF-539
[39] = system: A549
[40] = system: K562
[41] = system: HL-60
[42] = system: M14
[43] = system: EKVX
[44] = system: A498
[45] = system: LOX IMVI
[46] = system: OVCAR-5
[47] = system: HCT-15
[48] = system: RXF 393
[49] = system: SNB-78
[50] = system: UACC-257
[51] = system: SNB-75
[52] = system: RPMI-8226
[53] = system: TK-10
[54] = system: ACHN
[55] = system: UO-31
[56] = system: CAKI-1
[57] = system: SK-MEL-28

Measured: GI50

Cc1c2cc[n+](C)cc2c(C)c2c1[nH]c1ccc(OCC(F)(F)F)cc12
inactive: [1] 3.41 µM | [2] 1.47 µM | [3] 3.98 µM | [4] 3.37 µM | [5] 3.08 µM | [9] 2.77 µM | [10] 7.31 µM | [11] 2.09 µM | [12] 3.72 µM | [13] 5.12 µM | [14] 1.57 µM | [15] 4.61 µM | [16] 12.2 µM | [17] 4.72 µM | [19] 3.01 µM | [22] 4.62 µM | [24] 1.49 µM | [25] 2.25 µM | [26] 3.37 µM | [30] 1.49 µM | [31] 1.77 µM | [32] 1.73 µM | [33] 4.11 µM | [34] 2.08 µM | [35] 7.14 µM | [37] 1.36 µM | [39] 2.12 µM | [40] 3.83 µM
active: [6] 0.38 µM | [7] 0.771 µM | [8] 0.275 µM | [18] 0.286 µM | [20] 0.375 µM | [21] 0.718 µM | [23] 0.447 µM | [27] 0.164 µM | [28] 0.467 µM | [29] 0.275 µM | [36] 0.94 µM | [38] 1.07 µM

N#Cc1ccccc1NC(=O)/C(=N\Nc1ccc([N+](=O)[O-])cc1)C1C(=O)NC(=O)NC1=O
> 100 µM: [47]
inactive: [41] > 100 µM | [1] > 100 µM | [42] > 100 µM | [43] > 100 µM | [2] > 100 µM | [3] > 100 µM | [44] > 100 µM | [45] > 100 µM | [4] > 100 µM | [46] > 100 µM | [5] > 100 µM | [6] > 100 µM | [7] > 100 µM | [48] > 100 µM | [49] > 100 µM | [9] > 100 µM | [50] > 100 µM | [10] > 100 µM | [11] > 100 µM | [51] > 100 µM | [13] > 100 µM | [52] > 100 µM | [14] 92.3 µM | [15] > 100 µM | [16] > 100 µM | [17] > 100 µM | [53] > 100 µM | [18] > 100 µM | [19] > 100 µM | [21] > 100 µM | [22] > 100 µM | [23] > 100 µM | [24] > 100 µM | [25] > 100 µM | [54] > 100 µM | [28] > 100 µM | [29] > 100 µM | [55] 62.8 µM | [56] 31.4 µM | [31] > 100 µM | [32] > 100 µM | [34] 3.69 µM | [35] > 100 µM | [36] > 100 µM | [37] > 100 µM | [57] > 100 µM | [38] > 100 µM | [39] > 100 µM | [40] > 100 µM

O=C(c1ccc(Cl)cc1)N(C(=S)N1CCN(c2ccccc2)CC1)C1CCCCC1
active: [20] 1.03 µM
> 100 µM: [47]
inactive: [41] 94.6 µM | [1] > 100 µM | [42] > 100 µM | [2] 70 µM | [3] > 100 µM | [45] 79.4 µM | [4] 45.7 µM | [46] > 100 µM | [5] > 100 µM | [6] > 100 µM | [7] > 100 µM | [48] > 100 µM | [49] > 100 µM | [8] > 100 µM | [9] > 100 µM | [50] 91.2 µM | [10] > 100 µM | [11] > 100 µM | [51] 85.3 µM | [12] > 100 µM | [13] 54.2 µM | [52] 63.5 µM | [14] > 100 µM | [15] > 100 µM | [16] > 100 µM | [17] > 100 µM | [53] > 100 µM | [18] > 100 µM | [19] > 100 µM | [21] > 100 µM | [22] > 100 µM | [23] > 100 µM | [24] > 100 µM | [25] > 100 µM | [26] 67.6 µM | [27] > 100 µM | [54] > 100 µM | [28] > 100 µM | [29] > 100 µM | [55] > 100 µM | [56] > 100 µM | [30] 46.9 µM | [31] > 100 µM | [32] > 100 µM | [33] > 100 µM | [34] > 100 µM | [36] > 100 µM | [37] > 100 µM | [57] > 100 µM | [38] > 100 µM | [39] > 100 µM | [40] 58.2 µM

— ChEMBL document CHEMBL1201862, “PubChem BioAssay data set” (2004)
